Test results taken from PMC8221158, “Novel pyrrolizines bearing 3,4,5-trimethoxyphenyl moiety: design, synthesis, molecular docking, and biological evaluation as potential multi-target cytotoxic agents” (Journal of Enzyme Inhibition and Medicinal Chemistry, 2021).

Biological target: T1, Aurora A (Homo sapiens, UniProt O14965)
T1 sequence (O14965 1-403): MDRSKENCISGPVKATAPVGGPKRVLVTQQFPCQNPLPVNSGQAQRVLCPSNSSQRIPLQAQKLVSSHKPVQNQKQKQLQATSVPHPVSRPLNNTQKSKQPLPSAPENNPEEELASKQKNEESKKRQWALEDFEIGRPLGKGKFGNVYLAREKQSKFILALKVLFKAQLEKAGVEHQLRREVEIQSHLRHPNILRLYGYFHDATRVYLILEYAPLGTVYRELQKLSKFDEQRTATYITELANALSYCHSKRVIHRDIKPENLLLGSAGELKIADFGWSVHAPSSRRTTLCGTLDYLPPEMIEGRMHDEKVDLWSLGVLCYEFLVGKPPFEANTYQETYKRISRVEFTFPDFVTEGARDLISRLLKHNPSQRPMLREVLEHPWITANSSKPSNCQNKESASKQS
Experiment: Kinase profiling test
Format: biochemical
Details: stated as inhibition
Experimental: The test was performed using the radiolabeled ATP determination method (KINEXUS Bioinformatics Corporation, Vancouver, Canada). The test was performed following the previous reports[13]^,[20].
The three compounds were tested at the same concentration (10 μM) against the same 20 kinases used in the previous report. The test was performed by KINEXUS Bioinformatics Corporation (Vancouver, Canada), following previous reports[13]^,[20].

COc1cc(C(=O)Nc2c(C#N)c3n(c2C(=O)Nc2ccc(Cl)cc2)CCC3)cc(OC)c1OC [16d, N-(4-Chlorophenyl)-7-cyano-6-(3,4,5-trimethoxybenzamido) -2,3-dihydro-1H-pyrrolizine-5-carboxamide]
inhibition at 10 µM: 14%
